Results as given in patent publication US20080207532A1, “Use of Nordihydroguaiaretic Acid Derivatives in the Treatment of Drug Resistant Cancer, Viral and Microbial Infection” (Johns Hopkins University, priority 2004, published 2008).
Read-outs that look alike come from different tables or passages of the source.

Legend:
MDR-1 gene = details: cited from earlier work
NCI/ADR-RES cells = test: SRB cytotoxicity assay with median-effect / combination index analysis; format: cell-based, human; details: for IC50: Homo sapiens
Experimental: The multidrug resistant cell line, NCI/ADR-RES, was obtained from the DTP Human Tumor Cell Line Screen (Developmental Therapeutics Program, NCI). Both cell lines were maintained in Dulbecco's modified Eagle's medium supplemented with 10% fetal bovine serum and the antibiotics penicillin and streptomycin. […] Stocks of M4N and paclitaxel (Sigma-Aldrich, St. Louis, Mo.) were prepared in dimethyl sulfoxide (DMSO) and added to the cell culture medium so that the final concentration of DMSO was one percent. Aqueous stocks of Dox (Sigma-Aldrich) were prepared and filter sterilized before dilution into growth medium.
NCI/ADR-RES cells were seeded at a density of 2×10^4 cells per well in 24 well plates and 24 h later the growth medium was supplemented with M4N, Dox, paclitaxel or combinations of M4N with Dox or M4N with paclitaxel. MAN was used at concentrations between 1.5 and 48 μM. For the combination of MAN and Dox a constant molar ratio of 2.4:1 (M4N:Dox) was used and for M4N and paclitaxel the ratio was 20:1 (M4N:paclitaxel). Three days after drug addition cytoxicity was assessed with the SRB assay (14) with 540 and 690 nm (reference) absorbance measured with a Power Wave 200 microplate reader (Bio-Tek Instruments, Winooski, Vt.).
The combination index (CD isobologram method of Chou and Talalay (16, 17, 18, 19) which is based on the median effect principle, was used to calculate synergism or antagonism for the combined drug effects. Dose-effect curves for each drug, singly and in combination, in serially-diluted concentrations were plotted using the median-effect equation and plot (18, 20) and the CI equation and plot (19). CI values at different effect and dose levels and isobolograms were generated automatically using the computer software CompuSyn (20). With this method, additive, synergistic or antagonistic effects are indicated by CI values of 1, <1, and >1, respectively. Comparison of the ratio of doses required to reach a given effect level for each single drug and the drugs in combination was used to determine the dose-reduction index (DRI).

MCF-7 = details: MCF-7, drug sensitive human breast cancer cell line; read-out: reported IC50; cited from earlier work
Hep3B cells = test: DAPI staining of nuclei for apoptotic bodies; format: cell-based, human; details: 60 μM, 72 hr
Experimental: FIG. 9. (A) Effect of Maltose-M3N on the proliferation of human tumor cell lines. HT29, LNCaP, Hep3B, K562, and MCF7 were treated with different concentrations of Maltose-M3N for 72 hours. Percent cell viability was measured by MTT assay and expressed as mean±SD of triplicate data points. (B) Untreated Hep3B cells or treated with 60 μM Maltose-M3N for 72 hr were stained with DAPI. Arrows indicate apoptotic bodies.
The growth inhibitory effect of Maltose-M3N was evaluated in five human cancer cell lines, including Hep3B, HT29, K562, LNCaP, and MCF7.

[1] = system: Hep3B, HT29, K562, LNCaP, and MCF7; test: MTT cell viability of human tumor cell lines; format: cell-based; details: 72 h, every cell line tested (Hep3B, HT29, K562, LNCaP, MCF7), 3 days
Experimental: Human tumor cell lines were obtained from ATCC (Mannassas, Va.). The human hepatocellular carcinoma cell line, Hep3B, was maintained in Eagle's MEM supplemented with 10% FBS; the human breast cancer cell line, MCF7, was grown in DMEM containing 10% FBS; the human colorectal carcinoma cell line, HT29, was cultured in McCoy's 5a medium with 10% FBS; the human prostate carcinoma cell line, LNCaP, was maintained in RPMI 1640 with 10% FBS and human erythroleukemia cell line, K562, was propagated in Iscove's modified Dulbecco's medium (IMDM) containing 10% FBS. All of the cultures contained the antibiotics penicillin and streptomycin. The C3 cell line was generated by transfection of the EJras-transformed C57B16 (B6) mouse embryo cells with fall length HPV16. C3 cells were grown and maintained in IMDM supplemented with 5% FBS plus penicillin and streptomycin.
For cell culture experiments, Maltose-M3N was dissolved in water to a concentration of 10 mM and then sterilized by filtration. Cells were seeded at approximately 2×10^3 cells per cm^2 in complete media. Twenty-four hours after seeding, the growth media was removed and replaced with media containing the desired concentrations of Maltose-M3N.
Twenty thousand cells were seeded into each well of 24-well plates. […] The solubilized dye was transferred to 96-well plates and read at the wavelength of 540 nm using an ELISA reader.

C3 tumors = test: intratumoral treatment of C3 cell-induced tumors in mice; format: in vivo; details: daily intratumoral injections for 4 days
Experimental: Four C57b1/6 mice were inoculated with 5×10^5 C3 cells subcutaneously between the shoulders. Tumors were allowed to develop for approximately 20 days. The mice then received daily intratumoral injections of 0.1 ml of 0.15 M NaCl, 10 mg, 20 mg or 40 mg of Maltose-M3N dissolved in 0.15 M NaCl. After 4 days of treatment, the mice were euthanized and the tumors were excised, immediately fixed and then stored in 4% formaldehyde in PBS. Tissue samples were then sent to Paragon Bioservices (Baltimore, Md.) for histology and immunohistochemistry using antibodies against Cdc2 and survivin.

[2] = system: NCI/ADR-RES multidrug resistant breast cancer xenografts; test: combination therapy against NCI/ADR-RES xenografts in nude mice; details: two weeks
Experimental: Nude mice bearing NCI/ADR-RES multidrug resistant breast cancer xenografts were used as a model for combination therapy to further examine synergy between M4N and paclitaxel.
T-cell deficient female nude (nu/nu) mice, 5-6 weeks of age, were purchased from Charles River Laboratories (Wilmington, Mass.) and were housed in a pathogen-free room. All experiments involving the mice were carried out in accordance with the Johns Hopkins University Animal Care and Use Committee guideline. The mice were implanted subcutaneously in both flanks with 1×10^6 NCI/ADR-RES cells suspended in Hank's balanced salt solution (HBSS). […] For intraperitoneal (i.p.) administration, M4N, maltose-M3N and paclitaxel were dissolved in a recently developed reduced cremophor solution containing 20% (v) dehydrated ethanol, 20% (v) Cremophor EL, PEG 300, <11% (v) Tween 80 (22). Daily injections of 0.05 ml were performed for each drug and drug combination.
Tumors were measured in two perpendicular dimensions once every seven days, and the tumor volumes were calculated according to the following formula: […]
where a is the width of the tumor (smaller diameter) and b is the length (larger diameter) (23). The mean tumor volume and standard error were calculated for each treatment group. Relative mean tumor volumes, (V/V0), where V is the mean tumor volume at a particular time and V0 is the mean tumor volume at day 0 (23), were determined and used to assess tumor growth inhibition (T/C value) using the following equation:
T/C(%)=Relative Mean Tumor Volume of treated/Relative Mean Volume of control×100.
The NCI standard for the minimal level for antitumor activity (T/C≦42%) was adopted (25). At the termination of the experiment the tumors were excised and fixed in formaldehyde. Tissue samples were then sent to Paragon Bioservices for histology and immunohistochemistry using antibodies against human P-glycoprotein (Pgp).
Two dosage regimens of M4N and paclitaxel, both with a constant molar ratio of 20:1 (M4N:paclitaxel), were employed as determined by in vitro testing to be synergistic as shown in Table 1. The 8 and 16 μmol m^2 doses of pactitaxel were submaximal based on values from other studies (22) and the M4N doses of 160 and 320 μmol/m^2 were arrived at by decreasing the maximum tolerated dose used in our previous study with MCF-7 breast cancer xenografts (5). An additional NDGA derivative was also tested. Maltose-M3N was developed as a water soluble alternative to M4N, however for consistency it was dissolved in the same reduced cremophor solvent system as M4N and paclitaxel for this study.

solubility in water = format: physicochemical
[3] = 72 h, NCI/ADR-RES, three days, combinations at molar ratio 2.4:1 (M4N:Dox) or 20:1 (M4N:paclitaxel), given as M4N + second drug, read-out: Dm, median effect dose (concentration that inhibits cell growth by 50%)
[4] = single agent, NCI/ADR-RES, read-out: IC50
[5] = M4N/Dox combination 2.4:1, NCI/ADR-RES
[6] = M4N/Dox combination, NCI/ADR-RES
[7] = higher regimen: M4N or Mal-M3N 320, Px 16 μmoles/m^2, i.p. daily
[8] = lower regimen: M4N 160, Px 8 μmoles/m^2, i.p. daily
[9] = M4N/paclitaxel combination 20:1, NCI/ADR-RES
[10] = M4N/paclitaxel combination, NCI/ADR-RES

COc1cc2c(cc1O)CCN[C@]21CS[C@@H]2c3c(OC(C)=O)c(C)c4c(c3[C@H](COC1=O)N1[C@@H]2[C@H]2c3c(cc(C)c(OC)c3O)C[C@@H]([C@@H]1O)N2C)OCO4 [ET-743]
MDR-1 gene activation (MDR-1 gene): able to inhibit MDR-1 gene activation

COc1cccc2c1C(=O)c1c(O)c3c(c(O)c1C2=O)C[C@@](O)(C(=O)CO)C[C@@H]3O[C@H]1C[C@H](N)[C@H](O)[C@H](C)O1 [Dox, doxorubicin]
concentration necessary to inhibit the growth of 75% of cells (ED75) (NCI/ADR-RES cells; Dox alone, NCI/ADR-RES): 30.5 µM
concentration necessary to inhibit the growth of 75% of cells (ED75) (NCI/ADR-RES cells; Dox with concurrent 11.3 μM M4N, NCI/ADR-RES): 4.7 µM
IC50 (NCI/ADR-RES cells; [3]): 3.22 µM
IC50 (NCI/ADR-RES cells; [4]): 3.22 µM
DRI value at ED75 (NCI/ADR-RES cells; [5]): 6.47
DRI value at ED90 (NCI/ADR-RES cells; [5]): 30.50
DRI value at ED95 (NCI/ADR-RES cells; [5]): 87.56
decrease of ED75 by concurrent M4N (DRI) (NCI/ADR-RES cells; [6]): 6.47 fold
reduction of ED95 by concurrent M4N (DRI) (NCI/ADR-RES cells; [6]): 87.6 fold
IC50 (MCF-7): 0.13 µM

COc1ccc(C[C@H](C)[C@H](C)Cc2ccc(OC)c(OC3OC(CO)C(OC4OC(CO)C(O)C(O)C4O)C(O)C3O)c2)cc1OC (stereo partly shown) [Maltose-M3N]
mode of cell death (DAPI staining) (Hep3B cells): cell death occurred via apoptosis
IC50 [1]: 20 to 40 µM
Cdc2 protein expression in tumors (C3 tumors): reduced expression levels
apoptosis and necrosis by H&E staining (C3 tumors): elevated levels of apoptosis and necrosis
survivin protein expression in tumors (C3 tumors): reduced expression levels
Relative Mean Tumor Volume [2, 7]: 1.25
T/C % [2, 7]: 47.7%
solubility in aqueous solution (solubility in water): water soluble

CC(=O)O[C@H]1C(=O)[C@@]2(C)[C@H]([C@H](OC(=O)c3ccccc3)[C@]3(O)C[C@H](OC(=O)[C@H](O)[C@@H](NC(=O)c4ccccc4)c4ccccc4)C(C)=C1C3(C)C)[C@]1(OC(C)=O)CO[C@@H]1C[C@@H]2O [paclitaxel]
Deaths [2, 7]: 0/7
Relative Mean Tumor Volume [2, 7]: 1.59
T/C % [2, 7]: 60.7%
Deaths [2, 8]: 0/7
Mean Body Weight Change [2, 8]: +0.3 g/mouse
Relative Mean Tumor Volume [2, 8]: 0.90
T/C % [2, 8]: 34.4%
IC50 (NCI/ADR-RES cells; [3]): 3.26 µM
IC50 (NCI/ADR-RES cells; [4]): 3.26 µM
DRI value at ED75 (NCI/ADR-RES cells; [9]): 54.32
DRI value at ED90 (NCI/ADR-RES cells; [9]): 150.31
DRI value at ED95 (NCI/ADR-RES cells; [9]): 300.34
decrease of ED50 by concurrent M4N (DRI) (NCI/ADR-RES cells; [10]): 19.63 fold
decrease of ED95 by concurrent M4N (DRI) (NCI/ADR-RES cells; [10]): 300.3 fold
IC50 (MCF-7): 0.0064 µM
